assay: Inhibition of I309-induced chemotaxis in L1.2 cells expressing CCR8

In order of rising IC50:
1. CC(C)(C(=O)O)N1CCC(C(=O)NC2CCN(Cc3cccc(Oc4ccccc4Cl)c3)CC2)(c2ccccc2)C1 (configuration not stated) [2-(3-((1-(3-(2-chlorophenoxy)benzyl)piperidin-4-yl)carbamoyl)-3-phenylpyrrolidin-1-yl)-2-methylpropanoic acid]  0.001 µM
2. CC(C)(C(=O)O)N1CCC(C(=O)NC2CCN(Cc3cccc(Oc4ccccc4Cl)c3)CC2)(c2ccccc2)CC1 [2-(4-{1-[3-(2-chloro-phenoxy)-benzyl]-piperidin-4-ylcarbamoyl}-4-phenyl-piperidin-1-yl)-2-methyl-propionic acid]  0.004 µM
3. COc1ccccc1Oc1cccc(CN2CCC(NC(=O)C3(c4ccccc4)CCNCC3)CC2)c1 [4-phenyl-piperidine-4-carboxylic acid {1-[3-(2-methoxy-phenoxy)-benzyl]-piperidin-4-yl}-amide]  0.011 µM
4. O=C(NC1CCN(Cc2cccc(Oc3ccccc3Cl)c2)CC1)C1(c2ccccc2)CCNC1 (racemic) [(+/-) 3-phenyl-pyrrolidine-3-carboxylic acid {1-[3-(2-chloro-phenoxy)-benzyl]-piperidin-4-yl}-amide]  0.022 µM
5. CCN1CCC(C(=O)NC2CCN(Cc3cccc(Oc4ccccc4Cl)c3)CC2)(c2ccccc2)CC1 [1-ethyl-4-phenyl-piperidine-4-carboxylic acid {1-[3-(2-chloro-phenoxy)-benzyl]-piperidin-4-yl}-amide]  0.043 µM
6. COc1ccccc1Oc1cccc(CN2CCC(NC(=O)Cc3ccccc3)CC2)c1 [N-{1-[3-(2-methoxy-phenoxy)-benzyl]-piperidin-4-yl}-2-phenyl-acetamide]  0.055 µM
7. CCN1CCC(C(=O)NC2CCN(Cc3cccc(Oc4ccccc4OC)c3)CC2)(c2ccccc2)CC1 [1-ethyl-4-phenyl-piperidine-4-carboxylic acid {1-[3-(2-methoxy-phenoxy)-benzyl]-piperidin-4-yl}-amide]  0.056 µM
